Consider two molecules from US9309191B2 (priority 2013, dated 2016).

Bounds are passed on as bounds.

The experiment has as its system Magnaporthe grisea. The format is in vivo. The following applies: rice (Nipponbare); for lesion area of treated plants relative to the lesion area in the non-treated plant: 200 ppm foliar spray, contact with affected seedlings for 6 days; for Lesion Area (%): Concentration 200 ppm foliar spray, table.

On to `Cc1cc(OCC2CCCCC2)c(C)cc1N=CN(C)C` [Compound 267, N′-(4-cyclohexylmethoxy-2,5-dimethylphenyl)-N,N-dimethylformamidine], for which the “lesion area of treated plants relative to the lesion area in the non-treated plant” value is listed as not above 50% and the “Lesion Area (%)” value was 31-50%.

Regarding `Cc1cc(OCC2CC2)c(C)cc1/N=C/N(C)C` [1-17, N′-(4-cyclopropylmethoxy-2,5-dimethylphenyl)-N,N-dimethylformamidine], the “lesion area of treated plants relative to the lesion area in the non-treated plant” value is listed as not above 10% and the “Lesion Area (%)” value is 1-10%.
